The subject of one assay is BH1CC. In words: microbe, parasite or virus in culture. The settings on record: 18 h. It is filed as cell-based, Staphylococcus aureus. The method, then: (§1) Strains used in the study were isolates of methicillin-resistant Staphylococcus aureus (MRSA); USA300 LAC, BH1CC ([O’Neill et al., 2007]), methicillin-sensitive S. aureus (MSSA); SH1000 ([Horsburgh et al., 2002]) and BH48 ([O’Neill et al., 2007]); and Pseudomonas aeruginosa PAO1 (ATCC […]). Clinical isolates were obtained from a previous collection of isolates of infected wounds. Bacteria were grown aerobically at 37°C with shaking at 200 rpm in Brain Heart Infusion (BHI, Oxoid, Ireland). Selective media, Mannitol Salt Agar (SLS, Ireland) and MacConkey agar (SLS, Ireland), for re-isolation of bacterial strains from mixed species biofilms were used. Bolton Broth (Fannin, Ireland) supplemented with 50% bovine heparin plasma (TebuBio, UK), and 5% laked horse blood (Sigma-Aldrich, Ireland) was used to mimic in vivo conditions for static antibiofilm testing. For dynamic biofilm growth Simulated Wound Fluid (SWF) prepared as described previously with slight modification, 3% v/v fetal bovine serum in maximum recovery diluent (Merck, Ireland) was used ([Barbour et al., 2016]).
(§2) Minimum inhibitory concentration (MIC) was determined aerobically using the broth microdilution assay as recommended by the Clinical and Laboratory Standards Institute (CLSI) ([CLSI, 2018]). Briefly, 2-fold serial dilutions of the antimicrobial peptides of interest and conventional antibiotics were prepared in Mueller-Hinton broth (MHB) (Merck, Ireland) in a 96-well round bottom polypropylene plate (ThermoFisher, Ireland). Diluted bacterial suspensions in sterile PBS (Sigma, Ireland) were added to each well resulting in a final cell density of approximately 10^5 colony forming units (CFU)/mL. Microplates were incubated statically for 18 h at 37°C. In each assay, inoculated medium without antimicrobials and uninoculated medium served as growth and sterility controls, respectively. Conventional antibiotics, gentamicin (Merck, Ireland) and mupirocin (SLS, UK), were tested as comparator antimicrobials. The MIC value was defined as the lowest antimicrobial concentration showing no visible growth relative to positive (no antimicrobial agent) and negative controls (BHI alone). Experiments were conducted in triplicate, and independent replicates were performed three times to yield n = 3.

The next assay has as its system BH48. The experiment in a line: microbe, parasite or virus in culture. It is filed as cell-based, Staphylococcus aureus. The settings on record: 18 h. As to the method: as §1, §2
Another assay concerns SH1000. In words: microbe, parasite or virus in culture. It is filed as cell-based, Staphylococcus aureus. The method, then:
as §1, §2

Another assay concerns USA300. In words: microbe, parasite or virus in culture. The assay is classed as cell-based, Staphylococcus aureus. The method, then:
as §1, §2

A further assay has as its system PAO1. In words: microbe, parasite or virus in culture. It is filed as cell-based, Pseudomonas aeruginosa. As to the method: as §1, §2
A further assay relates to S. aureus strains. It is filed as cell-based, Staphylococcus aureus. The settings on record: 2 MRSA and 2 MSSA strains, summed up in text. As to the method:
as §1
Minimum inhibitory concentration (MIC) was determined aerobically using the broth microdilution assay as recommended by the Clinical and Laboratory Standards Institute (CLSI) ([CLSI, 2018]). […]

In a further assay the test system is HaCaT. The experiment in a line: MTT cell viability. The settings on record: 24 h, 37°C, 5% CO2, ethanol control. The assay is classed as cell-based, human.
Another assay concerns HUVEC. The experiment in a line: MTT cell viability. The assay is classed as cell-based, human. The settings on record: 24 h, 37°C, 5% CO2, ethanol control.
The next assay has as its system THP-1. The assay is classed as cell-based, human. The settings on record: THP-1; 24 h, 37°C, 5% CO2; ethanol control. As to the method: Sigma-Aldrich, Ireland). […] At 90% confluence, cells were centrifuged and diluted to a 1:5 ratio with complete RPMI. THP-1 cells were seeded in a 96 well plate at a density of 1 × 10^5 cells/mL with increasing concentrations of D-Bac8c^2,5 Leu. Cells were incubated for 24 h at 37°C with 5% CO2, 95% humidity. […] The absorbance was measured at 595 nm in a microplate spectrophotometer. Cell viability was calculated as a percentage of a control treated with PBS. Two technical replicates were performed each day on three independent days.

Setting [1] is: BH1CC (MRSA), MHB, about 10^5 CFU/mL, 37°C, n = 3.
The mark [2] stands for this setting: BH48 (MSSA), MHB, about 10^5 CFU/mL, 37°C, n = 3.
[3] abbreviates: SH1000 (MSSA), MHB, about 10^5 CFU/mL, 18 h, 37°C, n = 3.
Setting [4] is: USA300 (MRSA), MHB, about 10^5 CFU/mL, 18 h, 37°C, n = 3.
Where [5] appears, read: PAO1, MHB, about 10^5 CFU/mL, 18 h, 37°C, n = 3.
Where [6] appears, read: Staphylococcus aureus, BH1CC (MRSA), MHB, about 10^5 CFU/mL, 37°C, n = 3, read-out: MIC.
The mark [7] stands for this setting: Staphylococcus aureus, BH48 (MSSA), MHB, about 10^5 CFU/mL, 37°C, n = 3, read-out: MIC.
The mark [8] stands for this setting: Staphylococcus aureus, SH1000 (MSSA), MHB, about 10^5 CFU/mL, 18 h, 37°C, n = 3, read-out: MIC.
Setting [9] is: Staphylococcus aureus, USA300 (MRSA), MHB, about 10^5 CFU/mL, 18 h, 37°C, n = 3, read-out: MIC.
Setting [10] is: Pseudomonas aeruginosa, PAO1, MHB, about 10^5 CFU/mL, 18 h, 37°C, n = 3, read-out: MIC.

≈ marks a conversion by molar mass, not a printed value. Where two headings read alike, the source gives them in different places. Residues, ends and D or L forms follow the SMILES beside them.

`CC[C@H](C)[C@H](NC(=O)[C@H](CCCNC(=N)N)NC(=O)[C@@H](NC(=O)[C@H](C)NC(=O)[C@@H](NC(=O)[C@@H](NC(=O)[C@H](CC(C)C)NC(=O)[C@H](CCCNC(=N)N)NC(=O)[C@@H](N)C(C)C)[C@@H](C)CC)C(C)C)C(C)C)C(=O)N[C@@H](Cc1c[nH]c2ccccc12)C(=O)N[C@@H](CCCNC(=N)N)C(=O)N[C@@H](CCCNC(=N)N)C(N)=O` [IDR-1018] (H-VRLIVAVRIWRR-NH2): the MIC was 128 µg/mL (≈ 83.3 µM) with BH1CC (setting [1]); 128 µg/mL (≈ 83.3 µM) against BH48 (setting [2]); 64 µg/mL (≈ 41.7 µM) with SH1000 (setting [3]); 64 µg/mL (≈ 41.7 µM) against USA300 (setting [4]); 64 µg/mL (≈ 41.7 µM) in the assay on PAO1 (setting [5]).
On to `CC[C@H](C)[C@H](NC(=O)CNC(=O)[C@H](CCCCN)NC(=O)[C@H](Cc1ccc(O)cc1)NC(=O)[C@H](CS)NC(=O)[C@@H](NC(=O)[C@H](CCCCN)NC(=O)[C@H](Cc1c[nH]c2ccccc12)NC(=O)[C@H](CS)NC(=O)[C@H](Cc1ccccc1)NC(=O)[C@@H](N)CCCNC(=N)N)C(C)C)C(=O)N[C@@H](CS)C(=O)N[C@@H](Cc1ccccc1)C(=O)N[C@@H](CCCCN)C(=O)N[C@@H](CCCCN)C(=O)N[C@@H](CS)C(=O)N[C@@H](CCCCN)C(N)=O` [RP557] (H-RFCWKVCYKGICFKKCK-NH2; N-terminus assumed), for which the MIC against BH1CC (setting [1]) came to 16 µg/mL (≈ 7.48 µM); in the assay on BH48 (setting [2]), 16 µg/mL (≈ 7.48 µM); against SH1000 (setting [3]) it was 16 µg/mL (≈ 7.48 µM); against USA300 (setting [4]), 16 µg/mL (≈ 7.48 µM); in the assay with PAO1 (setting [5]) it was 8 µg/mL (≈ 3.74 µM). Also, the “MIC against S. aureus strains” value against S. aureus strains was 16 µg/mL (≈ 7.48 µM).
`CC(C)[C@H](NC(=O)[C@H](CCCCN)NC(=O)[C@H](CCCCN)NC(=O)[C@@H]1CCCN1C(=O)[C@H](CCCCN)NC(=O)[C@@H](NC(=O)[C@@H]1CCCN1C(=O)[C@H](CCCCN)NC(=O)[C@@H](NC(=O)[C@H](CCCCN)NC(=O)[C@H](CCCCN)NC(=O)[C@H](CO)NC(=O)[C@@H]1CCCN1)[C@@H](C)O)C(C)C)C(=O)N[C@@H](C)C(N)=O` [DRGN-1] (H-PSKKTKPVKPKKVA-NH2): the MIC in the assay on BH1CC was over 400 µg/mL; against BH48, over 400 µg/mL; against SH1000 (SH1000, 18 h), over 400 µg/mL; in the assay on USA300 (USA300, 18 h) it was over 400 µg/mL; with PAO1 (PAO1, 18 h) it was over 400 µg/mL.
Consider `C/C(=C\C(=O)OCCCCCCCCC(=O)O)C[C@@H]1OC[C@H](C[C@@H]2O[C@H]2[C@@H](C)[C@H](C)O)[C@@H](O)[C@H]1O` [Mupirocin, mupirocin], for which the MIC in the assay with BH1CC (setting [6]) was 2 µg/mL (≈ 3.99 µM); in the assay on BH48 (setting [7]) it was 0.03 µg/mL (≈ 0.0599 µM); with SH1000 (setting [8]) it was 0.03 µg/mL (≈ 0.0599 µM); in the assay with USA300 (setting [9]), 0.06 µg/mL (≈ 0.12 µM); in the assay with PAO1 (setting [10]), over 2050 µg/mL.
Turning to `CCO` [Ethanol, reference compound], the “IC50 (50% cell viability), MTT” value worked out at 1.2% in the assay on HaCaT, 0.4% in the assay on HUVEC and 1% in the assay on THP-1.
In the case of `CC(=O)O[C@H]1C[C@@]2(C)[C@@H](C[C@@H](O)[C@H]3[C@@]4(C)CC[C@@H](O)[C@@H](C)[C@@H]4CC[C@@]32C)/C1=C(\CCC=C(C)C)C(=O)O` [Fusidic acid], the MIC in the assay with BH1CC (setting [6]) is 2 µg/mL (≈ 3.87 µM); with BH48 (setting [7]), 4 µg/mL (≈ 7.74 µM); in the assay with SH1000 (setting [8]) it was 0.06 µg/mL (≈ 0.116 µM); in the assay with USA300 (setting [9]), 0.03 µg/mL (≈ 0.0581 µM); in the assay on PAO1 (setting [10]), over 512 µg/mL.
Turning to `CC[C@H](C)[C@H](NC(=O)[C@H](CCCNC(=N)N)NC(=O)[C@H](Cc1ccccc1)NC(=O)[C@H](CCCNC(=N)N)NC(=O)[C@@H](N)CCCCN)C(=O)N[C@@H](CCCNC(=N)N)C(=O)N[C@H](C(=O)N[C@@H](CCCNC(=N)N)C(=O)N[C@H](C(N)=O)C(C)C)C(C)C` [1,037] (H-KRFRIRVRV-NH2), the MIC with BH1CC is 128 µg/mL (≈ 104 µM); with BH48, 128 µg/mL (≈ 104 µM); against SH1000 (SH1000, 18 h), 128 µg/mL (≈ 104 µM); against USA300 (USA300, 18 h) it was 128 µg/mL (≈ 104 µM); in the assay with PAO1 (PAO1, 18 h), 64 µg/mL (≈ 52.1 µM).
Turning to `CNC(C)C1CCC(N)C(OC2C(N)CC(N)C(OC3OCC(C)(O)C(NC)C3O)C2O)O1` (stereo not drawn) [Gentamicin, gentamicin], the MIC in the assay with BH1CC (setting [6]) is 32 µg/mL (≈ 67 µM); in the assay with BH48 (setting [7]), 0.25 µg/mL (≈ 0.523 µM); with SH1000 (setting [8]), 0.25 µg/mL (≈ 0.523 µM); in the assay with USA300 (setting [9]), 0.5 µg/mL (≈ 1.05 µM); in the assay with PAO1 (setting [10]), 1 µg/mL (≈ 2.09 µM).
